Reference: patent US8318731B2, “Pyrrolopyrimidines” (Janssen Pharmaceutica NV, priority 2007, dated 2012)

Key:
[1] = system: A2780; assay: Cellular proliferation assay (Alamar blue), A2780; type: cell-based; conditions: Homo sapiens, A2780, A2780 cells; 10% FCS; 72 h with compound; Alamar blue 24 h; read-out: pIC50 A2780 (converted)
Summary of the method: (§1)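 Read-out: resazurin-based Alamar blue fluorescence at 544/590 nm, with dye left 24 h on PC3 and A2780, 6 h on U87-MG and 4 h on HCT-116. Beforehand, cells grew 24 h compound-free, then 72 h with compound, in 10% FCS at 37° C./5% CO2. Values are expressed against untreated controls.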

[2] = system: MDA-MB-231; assay: Cellular proliferation assay (Alamar blue), MDA-MB-231; type: cell-based; conditions: Homo sapiens, MDA-MB-231, MDA-MB-231 cells; 10% FCS; 72 h with compound; Alamar blue 24 h; read-out: pIC50 MDA/MB231 (converted)
Summary of the method: (§2)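 Viable cell number is determined by Alamar blue conversion after cells are treated with compound for 72 hours, following 24 hours of growth without compound in 10% FCS. The effect is calculated against control cells.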

[3] = molecular target: T1, PLK4 (h) (Homo sapiens, UniProt O00444); assay: PLK-4 human kinase scintillation proximity assay (SPA); type: biochemical; conditions: 1 μM ATP, 60 minutes at r.t., read-out: PLK4 pIC50 (converted)
T1 sequence (O00444 1-970): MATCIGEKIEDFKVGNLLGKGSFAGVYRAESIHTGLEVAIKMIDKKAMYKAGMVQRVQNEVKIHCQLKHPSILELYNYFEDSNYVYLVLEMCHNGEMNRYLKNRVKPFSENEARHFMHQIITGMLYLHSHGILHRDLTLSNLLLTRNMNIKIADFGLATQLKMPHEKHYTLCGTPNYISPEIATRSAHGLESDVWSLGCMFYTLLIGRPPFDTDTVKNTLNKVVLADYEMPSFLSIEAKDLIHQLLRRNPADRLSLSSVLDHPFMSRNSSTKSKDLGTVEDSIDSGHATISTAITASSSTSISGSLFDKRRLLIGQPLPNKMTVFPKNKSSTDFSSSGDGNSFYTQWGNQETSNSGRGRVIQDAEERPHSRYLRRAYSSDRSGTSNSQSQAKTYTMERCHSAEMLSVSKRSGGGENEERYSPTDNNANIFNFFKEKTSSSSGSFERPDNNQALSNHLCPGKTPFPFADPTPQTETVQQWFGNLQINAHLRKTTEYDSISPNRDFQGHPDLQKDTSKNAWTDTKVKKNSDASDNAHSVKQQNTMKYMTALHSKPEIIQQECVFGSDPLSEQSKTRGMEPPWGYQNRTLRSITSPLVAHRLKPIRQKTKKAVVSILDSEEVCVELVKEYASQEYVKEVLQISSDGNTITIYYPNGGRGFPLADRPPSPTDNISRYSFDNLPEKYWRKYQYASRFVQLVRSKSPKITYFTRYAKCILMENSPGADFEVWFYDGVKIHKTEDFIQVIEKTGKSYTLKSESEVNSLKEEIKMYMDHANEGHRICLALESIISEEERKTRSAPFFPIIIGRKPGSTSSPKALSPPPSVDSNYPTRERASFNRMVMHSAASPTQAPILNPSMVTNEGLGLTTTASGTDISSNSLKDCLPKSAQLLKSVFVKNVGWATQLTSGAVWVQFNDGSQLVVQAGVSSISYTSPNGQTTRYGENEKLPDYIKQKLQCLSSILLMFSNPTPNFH
Summary of the method: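 Scintillation proximity read-out: EDTA-stopped reactions were captured on streptavidin SPA beads after PLK4 (19 μg/ml) had phosphorylated 10 μM biotin-peptide for 60 min at room temperature, using 1 μM ATP spiked with 2 nM 33P-ATP in pH 8.0 HEPES buffer.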

[4] = system: HCT-116; assay: Cellular proliferation assay (Alamar blue), HCT-116; type: cell-based; conditions: Homo sapiens; HCT-116 cells; 10% FCS; 72 h with compound; Alamar blue 4 h; read-out: pIC50 HCT-116 (converted)
Summary of the method: as §1

[5] = system: PC3; assay: Cellular proliferation assay (Alamar blue), PC3; type: cell-based; conditions: Homo sapiens, PC-3, PC-3 cells; 10% FCS; 72 h with compound; Alamar blue 24 h; read-out: pIC50 PC-3 (converted)
Summary of the method: as §1

[6] = system: H1299; assay: Cellular proliferation assay (Alamar blue), H1299; type: cell-based; conditions: Homo sapiens, NCI-H1299, H1299 cells; 10% FCS; 72 h with compound; Alamar blue 4 h; read-out: pIC50 H1299 (converted)
Summary of the method: as §2

[7] = system: U87-MG; assay: Cellular proliferation assay (Alamar blue), U87-MG; type: cell-based; conditions: Homo sapiens, U-87 MG; U87-MG cells; 10% FCS; 72 h with compound; Alamar blue 6 h; read-out: pIC50 U87MG (converted)
Summary of the method: as §1

Compound | IC50 [1] [µM] | IC50 [2] [µM] | IC50 [3] [µM] | IC50 [4] [µM] | IC50 [5] [µM] | IC50 [6] [µM] | IC50 [7] [µM]
CN1CCCN(C)C(=O)COc2cc(ccc2OCCO)Nc2ncnc3[nH]cc(c23)C1 [Compound 80] | 6.31 | > 10 | 0.0631 | > 10 | > 10 | > 10 | > 10
COc1cc2cc(c1OC)OCC(=O)N(C)CCCN(C)Cc1c[nH]c3ncnc(c13)N2 [Compound 57] | > 10 | > 10 | 3.98 | > 10 | > 10 | > 10 | > 10
CN1CCCN(C)C(=O)COc2cc(ccc2Cl)Nc2ncnc3[nH]cc(c23)C1 [Compound 14] | 3.98 | > 10 | 0.0501 | 0.631 | > 10 | > 10 | 0.794
COCCOCCOc1ccc2cc1OCC(=O)N(C)CCCN(C)Cc1c[nH]c3ncnc(c13)N2 [Compound 128] | 0.398 | 5.01 | 0.0251 | 0.501 | 6.31 | 1 | 2.51
CN1CCCN(C)C(=O)COc2cccc(c2)Nc2ncnc3[nH]cc(c23)C1 [Compound 120] | 0.501 | 1 | 0.0316 | 0.398 | 1 | 1 | 0.794
COCCN(CCOc1ccc2cc1OCC(=O)N(C)CCCN(C)Cc1c[nH]c3ncnc(c13)N2)C(C)C [Compound 140] | 1 | 1.58 | 0.158 | 1 | 1.58 | 3.16 | 1
CN1CCN(C)C(=O)COc2cccc(c2)Nc2ncnc3[nH]cc(c23)C1 [Compound 58] | 3.16 | 10 | 0.0501 | 2.51 | 7.94 | 5.01 | 6.31
CN1CCN(C)C(=O)CN(C)C(=O)CCc2cccc(c2)Nc2ncnc3[nH]cc(c23)C1 [Compound 8] | > 10 | > 10 | > 10 | > 10 | > 10 | > 10 | > 10
CN1CCCN(C)C(=O)COc2cc(ccc2OCC(=O)NC2CCCCC2)Nc2ncnc3[nH]cc(c23)C1 [Compound 118] | 0.398 | 6.31 | 0.0251 | 0.631 | 6.31 | 1.58 | 3.16
CCOCCCOc1ccc2cc1OCC(=O)N(C)CCCN(C)Cc1c[nH]c3ncnc(c13)N2 [Compound 130] | 0.501 | 3.16 | 0.0398 | 0.631 | 5.01 | 1.58 | 2
CN1CCCN(C)C(=O)Cc2cccc(c2)Nc2ncnc3[nH]cc(c23)C1 [Compound 24] | 5.01 | > 10 | 0.398 | 3.98 | 10 | > 10 | 10
CN1CCCN(C)C(=O)COc2cc(ccc2NC(=O)Nc2ccc(Cl)cc2)Nc2ncnc3[nH]cc(c23)C1 [Compound 116] | 0.0794 | 5.01 | 0.0316 | 0.2 | 6.31 | 0.631 | 3.98
COCCN(CCOc1ccc2cc1OCC(=O)N(C)CCCN(C)Cc1c[nH]c3ncnc(c13)N2)Cc1ccccc1 [Compound 141] | 0.2 | 3.98 | 0.0398 | 0.398 | 3.16 | 1.26 | 2.51
CN1CCCN(C)C(=O)COc2cc(ccc2OCCCN2CCOCC2)Nc2ncnc3[nH]cc(c23)C1 [Compound 137] | 0.794 | 3.16 | 0.398 | 1.26 | 3.16 | 3.98 | 1.58
CN1CCN(C)C(=O)COc2cc(ccc2Cl)Nc2ncnc3[nH]cc(c23)C1 [Compound 98] | > 10 | > 10 | 0.1 | 5.01 | > 10 | > 10 | 6.31

Second part, the compound after the results:

IC50 [1] [µM] | IC50 [2] [µM] | IC50 [3] [µM] | IC50 [4] [µM] | IC50 [5] [µM] | IC50 [6] [µM] | IC50 [7] [µM] | Compound
> 10 | > 10 | 0.158 | > 10 | > 10 | > 10 | > 10 | COc1ccc2cc1OCC(=O)N(C)CCCN(CC1CC1)Cc1c[nH]c3ncnc(c13)N2 [Compound 59]
> 10 | > 10 | > 10 | > 10 | > 10 | > 10 | > 10 | COc1cc2cc(c1OC)OCCCC(=O)N1CCN(CC1)Cc1c[nH]c3ncnc(c13)N2 [Compound 112]
2 | 10 | 0.501 | 3.98 | 7.94 | 7.94 | 6.31 | CN1CCCN(C)C(=O)COc2cc(ccc2OCCN2CCOCC2)Nc2ncnc3[nH]cc(c23)C1 [Compound 126]
> 10 | > 10 | > 10 | > 10 | > 10 | > 10 | > 10 | COc1cc2cc(c1OC)OCCCCC(=O)N(C)CCN(C)Cc1c[nH]c3ncnc(c13)N2 [Compound 87]
> 10 | > 10 | 1 | > 10 | > 10 | > 10 | > 10 | COc1ccc2cc1OCCCC(=O)N1CCN(CC1)Cc1c[nH]c3ncnc(c13)N2 [Compound 105]
> 10 | > 10 | 3.16 | > 10 | > 10 | > 10 | > 10 | CN1CCN(C)C(=O)CCCCOc2cc(ccc2Cl)Nc2ncnc3[nH]cc(c23)C1 [Compound 49]
2 | 7.94 | 0.0794 | 1.26 | 3.16 | 2 | 1.58 | CN1CCCN(C)C(=O)COc2cc(ccc2N2CCCC2)Nc2ncnc3[nH]cc(c23)C1 [Compound 82]
> 10 | > 10 | > 10 | > 10 | > 10 | > 10 | > 10 | COc1ccc2cc1CN1CCCC(C1)C(=O)N(C)CCCc1c[nH]c3ncnc(c13)N2 (stereo not shown) [Compound 35]
2 | 10 | 1.26 | 2 | 6.31 | 3.16 | 2.51 | COc1ccc2cc1OCCNC(=O)CN(C)Cc1c[nH]c3ncnc(c13)N2 [Compound 22]
> 10 | > 10 | 1.58 | > 10 | > 10 | > 10 | > 10 | CN1CCCN(C)C(=O)CCCOc2cc(ccc2N2CCOCC2)Nc2ncnc3[nH]cc(c23)C1 [Compound 44]
